Patent US20260165321A1, “FUMIGANT COMPOSITION FOR PEST CONTROL” (priority 2020, published 2026)
In brackets after ≈: the same amount, converted by molar mass.

Key:
Format in all cases: in vivo
[1] = tested on: rice weevil (Sitophilus oryzae); conditions: adult rice weevil, fumigation 2 hours, about 24° C., 1-liter container
Source text: (§1) The poisoning ability index used in the following examples is the internationally commonly used median lethal concentration (LC50), which refers to a dosage required to kill 50% of a group of tested insects. The main test method is to include a number of tested insect (adults or larvae) and the examined chemical at a wide range of dosage in a 1-liter airtight transparent containers for a period of time. Afterward, the airtight containers were opened for ventilation, and the dead insects in the containers were counted. The linear regression between the mortality, expressed as probability unit, and the log dosage was analyzed using the software Priprobit v1.63, from which the value of LC50 could be obtained.
Put 30 adult insects of rice weevil (Sitophilus oryzae) into each of a group of 1-liter transparent containers, on which the name of tested chemical and the predetermined dosage are marked. Wherein, the chemicals to be tested include 2,5-dimethylfuran, 2,5-dimethylthiophene, 2-methylfuran, 2-methylthiophene, 2-ethylfuran and 2-ethylthiophene. The airtight containers, which contain the insect and chemical, are left at room temperature of about 24° C. for 2 hours. Afterward, the containers are opened for ventilation, and the dead rice weevils (Sitophilus oryzae) in each of the containers are counted. The linear regression between mortality and log dosage is analyzed using the software Priprobit v1.63, from which the lethal concentrations 50% (LC50) and 95% (LC95) are calculated.

[2] = tested on: German cockroach (Blattella germanica); experiment: Fumigant toxicity test (1), 2 h in 1-liter airtight container; conditions: fumigation 2 hours, ~24° C., 30 insects, doses 0-180 mg/dm^3
Source text: as §1
(§2) Take several 1-liter airtight transparent containers marked with different doses of 2,5-dimethylfuran, then put 30 insects into each of the transparent containers and add 2,5-dimethylfuran with marked doses (0, 18, 45, 90, 180 mg/dm^3), respectively, into each of the transparent containers. Place the containers at room temperature (˜24° C.) for 2 hours, and then quantitate the dead insects in each of the transparent containers. Wherein, the insects used include German cockroach (Blattella germanica), green peach aphid (Myzus persicae), brown planthopper (Nilaparvata lugens), diamondback moth (Plutella xylostella), rice weevil (Sitophilus oryzae), lesser grain borer (Rhyzopertha dominica), and sweet potato weevil (Cylas formicarius).

[3] = tested on: brown planthopper (Nilaparvata lugens); experiment: as above; conditions: fumigation 2 hours, ~24° C., 30 insects, doses 0-180 mg/dm^3
Source text: as §1, §2

[4] = tested on: diamondback moth (Plutella xylostella); experiment: as above; conditions: fumigation 2 hours, ~24° C., 30 insects, doses 0-180 mg/dm^3
Source text: as §1, §2

[5] = tested on: green peach aphid (Myzus persicae); experiment: as above; conditions: fumigation 2 hours, ~24° C., 30 insects, doses 0-180 mg/dm^3
Source text: as §1, §2

[6] = tested on: lesser grain borer (Rhyzopertha dominica); experiment: as above; conditions: fumigation 2 hours, ~24° C., 30 insects, doses 0-180 mg/dm^3
Source text: as §1, §2

[7] = tested on: rice weevil (Sitophilus oryzae); experiment: as above; conditions: fumigation 2 hours, ~24° C., 30 insects, doses 0-180 mg/dm^3
Source text: as §1, §2

`CCc1cccs1` [2-ethylthiophene] was tested, and the “LC95 [95% CI]” value [1] was 20.6 µg/mL (≈ 184 µM).
In the case of `Cc1ccco1` [2-methylfuran], the “LC95 [95% CI]” value [1] is reported as 329.7 µg/mL (≈ 4020 µM).
With `Cc1ccc(C)o1` [2,5-dimethylfuran] the “administered dosage required to kill all the tested individuals” value (shortened to “administered dosage required”) [2] was 90 mg/L, the “administered dosage required” value [3] was 90 mg/L and the “administered dosage required” value [4] was 90 mg/L. For the same molecule, the “administered dosage enough to kill all the tested individuals” value [5] was 18 mg/L, the “administered dosage enough to kill all the tested individuals” value [6] was 18 mg/L and the “administered dosage required” value [7] was 90 mg/L. For the same molecule, the “LC95 [95% CI]” value [1] was 111.6 µg/mL (≈ 1160 µM).
For `CCc1ccco1` [2-ethylfuran], the “LC95 [95% CI]” value [1] was 146.5 µg/mL (≈ 1520 µM).
With `Cc1ccc(C)s1` [2,5-dimethylthiophene] the “LC95 [95% CI]” value [1] was 135.3 µg/mL (≈ 1210 µM).
`Cc1cccs1` [2-methylthiophene] was tested, and the “LC95 [95% CI]” value [1] was 54.6 µg/mL (≈ 556 µM).
